Several values for one entry are separate records, joined by “and”; a condition that tells them apart may be missing. Identical values can stand only once. Like-named read-outs stand apart in the source and are kept apart here.
Experiments:
[1] = Pharmacokinetics after single intravenous drip infusion, plasma LC-MS/MS; type: in vivo, Philippine macaques; conditions: male, plasma, 0.42 mg/kg, plasma; for concentration at 0.17 hr / concentration at 0.25 hr / concentration at 0.5 hr / concentration at 0.75 hr / concentration at 1 hr: intravenous, AST-3424-D6 intravenous drip infusion 0.42 mg/kg
Protocol: AST-3424 and AST-3424-D6 (i.e. the compound of formula I) were administered to Philippine macaques by intravenous drip infusion, and blood samples were collected at different appointed times. LC-MS/MS was used to determine concentrations of the test substances in plasma of the Philippine macaques after administration, and relevant pharmacokinetic parameters were calculated.
Preparation method: 0.447 ml of AST-3424 (0.2 mg/ml) and 0.481 ml of AST-3424-D6 (0.2 mg/ml) were added into 104.272 ml of the dissolvent, respectively, and mixed for 5 minutes to obtain colorless and clarified solutions with pH 7.0.
The four male Philippine macaques were purchased from Guangxi Xiongsen Primate Development Experiment Co., Ltd. All Philippine macaques were healthy with qualified medical examination and no abnormality. Three of animals were used for the experiment, and one of them was used to prepare blank plasma.
About 0.8 ml of blood samples were collected through femoral vein and anticoagulated with heparin sodium. Appointed times of blood collection were before administration, 0.17, 0.25, 0.5, 0.75, 1, 2, and 4 hours after administration.
The blood samples were placed on ice after collection. Next, plasma samples were separated by centrifugation, and centrifugation conditions were 3500 rpm for 10 minutes at 4° C. Then, the collected plasma samples were stored at −80° C. until analysis. The plasma samples were analyzed by LC-MS/MS by an analysis department of an experimental institution. Besides, Lower limit of quantifications (LLOQ) of AST-3424 and AST-3424-D6 detection were 1 ng/ml. The accuracy of analysis results of an accompanying standard curve and a quality control samples all met the relevant requirements of biological analysis (the accuracy of the quality control samples exceeding 66.7% was between 85˜115%) in a process of the sample detection.
According to average blood concentration data of each group at each appointed time, the pharmacokinetic parameters of the compounds were respectively computed by a pharmacokinetic computing software, a non-compartmental model. In addition, the pharmacokinetic parameters were AUC0-t, AUC0-∞, MRT0-∞, Cmax, Tmax, t1/2, etc. In the case of the concentrations of the samples whose concentration being lower than a lower limit of quantification, the following schemes were used to compute the pharmacokinetic parameters. The samples sampled before reaching Cmax shall be computed as zero value, while the samples sampled after reaching Cmax shall be computed as non-quantifiable (marked as “BLQ”).
After a single intravenous infusion of the compounds AST-3424 and AST-3424-D6 was administered to the Philippine macaques, the whole blood samples of the corresponding animals were collected at the appointed times. Next, the whole blood samples were processed and biologically analyzed to obtain concentrations of the compounds in the plasma at the different appointed times. Results of the assay were listed in Table 14 below, and corresponding means of the plasma-drug concentration-time curves are shown in FIG. 3.
According to the plasma-drug concentration data of each drug group, the pharmacokinetic parameters of each compound group were computed using the non-compartmental model of the pharmacokinetic computing software. The pharmacokinetic

[2] = Stability in hepatomicrosome with NADPH (LC-MS/MS); type: in vitro ADME, human; conditions: for % Remaining: human hepatomicrosome 0.5 mg/ml, NADPH 2 mM, 37° C., Sample 1, Sample 2
Protocol: The compounds, hepatomicrosome and reduced coenzyme NADPH were mixed together. Besides, a final concentration of the hepatomicrosome was 0.5 mg/ml, and human, male and mixed types of the hepatomicrosome were purchased. A final concentration of the NADPH was 2 mM. Next, the preceding mixtures were incubated in buffer (100 mM KH2PO4—K2HPO4) at 37° C. for 0, 5, 15, 30, 45, and 60 minutes, respectively. At the appointed incubation time, the reaction was terminated by the addition of an internal standard solution. Finally, the samples were centrifuged and the supernatant was taken for detection by LC-MS/MS.
Through mass spectrometry analysis, a concentration of the compounds in each sample was expressed by a peak-area ratio (a ratio of the peak-area of the compound to a peak-area of the internal standard). Then, each remaining percentage of the compounds (% Remaining) at each appointed incubation time was calculated with a reference that 0 minute at each concentration of the compounds. In logarithm of the remaining percentage was fitted linearly with the appointed incubation times, and a half-life and an intrinsic clearance were calculated according to the following formulas.
The remaining percentage (% Remaining)=(a peak area ratio at a certain appointed time (PARappointed time)/a peak area ratio at 0 minute (PAR0-mm)×100 (PAR: peak area ratio)
The elimination rate constant (k)=a negative of a slope (-gradient)
In vitro clearance (CLint, in vitro) (ml/min/mg)=k/c (c: a concentration of hepatomicrosome in the incubation system)

[3] = Philippine macaque, individual animals 101, 102, 103, read-out: Plasma-drug concentration
[4] = Philippine macaque, read-out: Plasma-drug concentration, mean

Which half-life ([1]; Philippine macaque, cynomolgus monkey, iv, AST-3424-D6 single intravenous infusion, Table 15 heading 0.58 mg/kg (text: 0.42 mg/kg), read-out: T1/2, Mean (converted)) does the source give for `[2H]C([2H])([2H])N(C(=O)c1cccc(Oc2cc([C@H](C)OP(=O)(N3CC3)N3CC3)ccc2[N+](=O)[O-])c1)C([2H])([2H])[2H]` [AST-3424-D6] here?
Its half-life is 7.2 min.

And the Tmax ([1]; Philippine macaque, cynomolgus monkey, iv, AST-3424-D6 single intravenous infusion, Table 15 heading 0.58 mg/kg (text: 0.42 mg/kg), read-out: Tmax, Mean)?
Its Tmax is 18.6 min.

And the Vd ([1]; Philippine macaque, cynomolgus monkey, iv, AST-3424-D6 single intravenous infusion, Table 15 heading 0.58 mg/kg (text: 0.42 mg/kg), read-out: Vss, Mean)?
The Vd was 0.202 L/kg.

What about the concentration at 0.17 hr [1, 3] of the same molecule?
The concentration at 0.17 hr was 416 ng/mL.

What about the concentration at 0.17 hr [1, 4] of the same molecule?
Its concentration at 0.17 hr is 490 ng/mL.

What about the concentration at 0.25 hr [1, 3] of the same molecule?
The concentration at 0.25 hr was 479 ng/mL.

And the concentration at 0.25 hr [1, 4]?
Its concentration at 0.25 hr is 505 ng/mL.

What about the concentration at 0.5 hr [1, 3] of the same molecule?
The concentration at 0.5 hr was 485 ng/mL.

What about the concentration at 0.5 hr [1, 4] of the same molecule?
Its concentration at 0.5 hr is 502 ng/mL.

What about the concentration at 0.75 hr [1, 3] of the same molecule?
Its concentration at 0.75 hr is 113 ng/mL.

And the concentration at 0.75 hr [1, 4]?
Its concentration at 0.75 hr is 109 ng/mL.

What about the concentration at 1 hr [1, 3] of the same molecule?
Its concentration at 1 hr is 41 ng/mL.

What about the concentration at 1 hr [1, 4] of the same molecule?
Its concentration at 1 hr is 33.8 ng/mL.

What about the clearance ([1]; cynomolgus monkey, iv, AST-3424-D6 single intravenous infusion, Table 15 heading 0.58 mg/kg (text: 0.42 mg/kg), read-out: Cl, Mean (converted)) of the same molecule?
Its clearance is 22.3 mL/min/kg.

What about the Vd ([1]; cynomolgus monkey, iv, AST-3424-D6 single intravenous infusion, Table 15 heading 0.58 mg/kg (text: 0.42 mg/kg), read-out: Vz, Mean) of the same molecule?
Its Vd is 0.235 L/kg.

And the Stability parameter k (elimination rate constant) ([2]; human hepatomicrosome)?
Its Stability parameter k (elimination rate constant) is 0.0349 min⁻¹.

What about the “% Remaining” value ([2]; 0 minutes) of the same molecule?
Its value is 101.60% and 98.40%.

And the “% Remaining” value ([2]; 5 minutes)?
Its value is 85.07% and 87.20%.

What about the “% Remaining” value ([2]; 15 minutes) of the same molecule?
The value was 62.93% and 60.00%.

What about the “% Remaining” value ([2]; 30 minutes) of the same molecule?
The value was 36.80% and 34.93%.

And the “% Remaining” value ([2]; 45 minutes)?
The value was 21.17% and 21.07%.

And the “% Remaining” value ([2]; 60 minutes)?
Its value is 13.52% and 12.75%.

And the “% Remaining, Average” value ([2]; human hepatomicrosome, 0 minutes)?
The value was 100.00%.

What about the “% Remaining, Average” value ([2]; human hepatomicrosome, 5 minutes) of the same molecule?
The value was 86.13%.

What about the “% Remaining, Average” value ([2]; human hepatomicrosome, 15 minutes) of the same molecule?
The value was 63.47%.

What about the “% Remaining, Average” value ([2]; human hepatomicrosome, 30 minutes) of the same molecule?
Its value is 35.87%.

What about the “% Remaining, Average” value ([2]; human hepatomicrosome, 45 minutes) of the same molecule?
Its value is 21.12%.

What about the “% Remaining, Average” value ([2]; human hepatomicrosome, 60 minutes) of the same molecule?
Its value is 13.13%.

What about the “Hepatomicrosome stability compared with AST-3424, in words” value ([2]; human hepatomicrosome, FIG. 2 and Table 13) of the same molecule?
Its value is “more stable”.

And the “Remaining percentage higher than that of AST-3424” value ([2]; human hepatomicrosome, at the same time period)?
The value was “at least 10%”.

And the half-life ([2]; male, liver microsomes (hepatomicrosome), human hepatomicrosome, read-out: Stability parameter (t1/2))?
The half-life was 19.9 min.

Source: patent US20220395464A1, “ORALLY ADMINISTERED SOLID DOSAGE FORM DRUG” (ASCENTAWITS PHARMACEUTICALS, LTD., priority 2019, published 2022)
